Patent US20090232838A1, “Ligands of melanocortin receptors” (priority 2005, published 2009)
Read-outs that look alike come from different tables or passages of the source. Where a SMILES comes first, the peptide text is derived from it. Bridges are numbered along the chain shown (N, C = ends). [ ]: non-standard residue; d: D form. 2Nal = N[C@@H](Cc1ccc2ccccc2c1)C(=O)O; d2Nal = N[C@H](Cc1ccc2ccccc2c1)C(=O)O; Aib = CC(C)(N)C(=O)O

Experiments:
hMC3-R [1] = target: T1, hMC3-R (Homo sapiens, UniProt P41968); test: cyclic AMP bioassay, hMC3-R; assay type: cell-based
T1 construct: expressed in transfected cells; host or cells: CHO-K1
T1 sequence (P41968 whole entry): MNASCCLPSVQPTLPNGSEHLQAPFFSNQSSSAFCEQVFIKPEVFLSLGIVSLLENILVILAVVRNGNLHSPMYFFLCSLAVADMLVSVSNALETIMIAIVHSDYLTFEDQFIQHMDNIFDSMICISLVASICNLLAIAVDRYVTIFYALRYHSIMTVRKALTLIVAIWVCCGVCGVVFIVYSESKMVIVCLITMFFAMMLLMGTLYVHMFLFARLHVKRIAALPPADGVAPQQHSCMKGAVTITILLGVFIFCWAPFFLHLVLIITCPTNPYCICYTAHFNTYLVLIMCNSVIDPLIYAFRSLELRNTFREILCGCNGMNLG

hMC4-R [2] = target: T2, hMC4-R (Homo sapiens, UniProt P32245); test: Radioligand binding assay, hMC4-R
T2 construct: expressed in transfected cells; host or cells: CHO-K1
T2 sequence (P32245 whole entry): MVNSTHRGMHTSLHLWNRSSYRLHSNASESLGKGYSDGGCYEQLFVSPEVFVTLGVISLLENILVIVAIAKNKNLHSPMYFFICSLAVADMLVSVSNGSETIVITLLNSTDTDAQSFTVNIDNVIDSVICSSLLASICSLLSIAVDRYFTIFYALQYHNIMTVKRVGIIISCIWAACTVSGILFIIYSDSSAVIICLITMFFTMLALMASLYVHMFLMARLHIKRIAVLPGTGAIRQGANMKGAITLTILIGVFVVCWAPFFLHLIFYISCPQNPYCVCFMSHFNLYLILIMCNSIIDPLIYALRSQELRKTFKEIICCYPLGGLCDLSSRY
Description: (§1) Cellular membranes used for the in vitro receptor binding assays were obtained from transgenic CHO-K1 cells stably expressing hMC-R receptor subtypes 1, 3, 4 or 5. […] The pellets were resuspended in the same buffer and centrifuged at 50,000 g for 10 minutes at approximately 4° C. The washed pellets containing the cellular membranes were stored at approximately −80° C.
(§2) Filters were washed three times with 50 mM Tris-HCl at p-H 7.4 at a temperature of approximately 0-4° C. and then assayed for radioactivity using a Packard Topcount® scintillation counter. Binding data were analyzed by computer-assisted non-linear regression analysis (XL fit; IDBS).

hMC4-R [3] = target: T2, hMC4-R; test: cyclic AMP bioassay, hMC4-R; assay type: cell-based
Description: (§3) Intracellular cyclic AMP (cAMP) levels were determined by an electrochemiluminescence (ECL) assay (Meso Scale Discovery®, Gaithersburg, Md.; referred to hereinafter as MSD). […] Transgenic CHO-K1 cells stably expressing hMC receptor subtypes 1, 3, 4 or 5 were dispensed at a density of approximately 7,000 cells/well in 384-well Multi-Arrays plates (MSD) containing integrated carbon electrodes and coated with anti-CAMP antibody. Increasing concentrations of the test compounds were added and the cells were incubated for approximately 40 minutes at approximately 37° C. […] At the end of the second incubation period read buffer (Tris-buffered solution containing an ECL co-reactant and Triton X-100 at ph 7.8) was added and the cAMP levels in the cell lysates were immediately determined by ECL detection with a Sector Imager 6000 Reader® (MSD). Data were analyzed using a computer-assisted non-linear regression analysis (XL fit; IDBS) and reported as either an EC50 value or a Kb value.
(§4) The Kb value reflects the potency of an antagonist and is determined by Schild analysis. In brief, concentration-response curves of an agonist are carried out in the presence of increasing concentrations of an antagonist. […] It is calculated by extrapolating the line on a Schild plot to zero on the y-axis.

hMC5-R [4] = target: T3, hMC5-R (Homo sapiens, UniProt P33032); test: cyclic AMP bioassay, hMC5-R; assay type: cell-based
T3 construct: expressed in transfected cells; host or cells: CHO-K1
T3 sequence (P33032 whole entry): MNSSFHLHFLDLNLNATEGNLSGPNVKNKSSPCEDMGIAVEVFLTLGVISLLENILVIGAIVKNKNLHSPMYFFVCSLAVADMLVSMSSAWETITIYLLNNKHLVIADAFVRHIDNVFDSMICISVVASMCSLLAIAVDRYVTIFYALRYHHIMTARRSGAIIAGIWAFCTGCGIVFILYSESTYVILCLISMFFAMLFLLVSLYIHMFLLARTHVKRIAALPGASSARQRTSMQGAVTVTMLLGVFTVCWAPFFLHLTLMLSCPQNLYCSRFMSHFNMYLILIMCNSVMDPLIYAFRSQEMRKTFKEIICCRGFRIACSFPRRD
Description: as §3, §4

hMC1-R [5] = target: T4, hMC1-R (Homo sapiens, UniProt Q01726); test: cyclic AMP bioassay, hMC1-R; assay type: cell-based
T4 construct: expressed in transfected cells; host or cells: CHO-K1
T4 sequence (Q01726 whole entry): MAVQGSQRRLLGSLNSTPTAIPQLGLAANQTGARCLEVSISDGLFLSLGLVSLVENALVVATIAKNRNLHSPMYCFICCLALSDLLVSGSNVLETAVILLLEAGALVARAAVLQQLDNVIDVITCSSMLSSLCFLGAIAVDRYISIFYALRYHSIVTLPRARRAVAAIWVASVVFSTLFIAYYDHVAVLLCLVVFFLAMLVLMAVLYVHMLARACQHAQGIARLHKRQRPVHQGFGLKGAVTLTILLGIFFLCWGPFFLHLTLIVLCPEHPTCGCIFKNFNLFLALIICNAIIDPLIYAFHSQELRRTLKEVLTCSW
Description: as §3, §4

hMC3-R [6] = target: T1, hMC3-R; test: Radioligand binding assay, hMC3-R
Description: as §1, §2

hMC1-R [7] = target: T4, hMC1-R; test: Radioligand binding assay, hMC1-R
Description: as §1, §2

hMC5-R [8] = target: T3, hMC5-R; test: Radioligand binding assay, hMC5-R
Description: as §1, §2

| SMILES | Kb (hMC3-R [1]; Table 3A, cAMP in CHO-K1 cells, antagonist potency by Schild analysis, read-out: Kb hMC3-R) | Ki (hMC4-R [2]; read-out: Ki hMC4-R) | Kb (hMC4-R [3]; Table 3A, cAMP in CHO-K1 cells, antagonist potency by Schild analysis, read-out: Kb hMC4-R) | EC50 (hMC3-R [1]) | EC50 (hMC5-R [4]) | EC50 (hMC1-R [5]) | Ki (hMC4-R [2]) | EC50 (hMC4-R [3]) | Ki (hMC3-R [6]) | Kb (hMC3-R [1]) | Ki (hMC1-R [7]) | Kb (hMC4-R [3]) | Ki (hMC5-R [8]) |
| --- | --- | --- | --- | --- | --- | --- | --- | --- | --- | --- | --- | --- | --- |
| CCCC[C@H](N)C(=O)N[C@H]1CC(=O)NCCCC[C@@H](C(=O)NCCOCCOCC(=O)NCCOCCOCC(=O)N[C@@H](Cc2ccc(O)cc2)C(=O)NCC(=O)N[C@@H](CCCNC(=N)N)C(=O)N[C@@H](CCCCN)C(=O)N[C@@H](CCCCN)C(=O)N[C@@H](CCCNC(=N)N)C(=O)N[C@@H](CCCNC(=N)N)C(=O)N[C@@H](CCC(N)=O)C(=O)N[C@@H](CCCNC(=N)N)C(=O)N[C@@H](CCCNC(=N)N)C(=O)N[C@@H](CCCNC(=N)N)C(N)=O)NC(=O)[C@H](Cc2c[nH]c3ccccc23)NC(=O)[C@H](CCCNC(=N)N)NC(=O)[C@@H](Cc2ccc3ccccc3c2)NC(=O)[C@H](Cc2c[nH]cn2)NC1=O | 0.261 µM | 0.006 µM | 0.00311 µM | – | – | – | – | – | – | – | – | – | – |
| CCCC[C@H](NC(C)=O)C(=O)N[C@H]1CSSC[C@@H](C(=O)NCCC(=O)NCC(=O)N[C@@H](CCCNC(=N)N)C(=O)N[C@@H](CCCCN)C(=O)N[C@@H](CCCNC(=N)N)C(=O)N[C@@H](CCCNC(=N)N)C(=O)N[C@@H](CCCNC(=N)N)C(=O)N[C@@H](CCC(N)=O)C(=O)N[C@@H](CCCNC(=N)N)C(=O)N[C@@H](CCCNC(=N)N)C(=O)N[C@@H](CCCNC(=N)N)C(N)=O)NC(=O)[C@H](Cc2c[nH]c3ccccc23)NC(=O)[C@H](CCCNC(=N)N)NC(=O)[C@@H](Cc2ccccc2)NC(=O)[C@H](Cc2c[nH]cn2)NC(=O)[C@@H](C)NC1=O | – | – | – | 0.00329 µM | 0.566 µM | 0.00281 µM | 0.000293 µM | 0.000298 µM | 0.00121 µM | – | – | – | – |
| CC(=O)N[C@H]1CSSC[C@@H](C(=O)N2CCC[C@H]2C(=O)N2CCC[C@H]2C(=O)N[C@@H](CCCCN)C(=O)N[C@@H](CC(=O)O)C(=O)NCCC(=O)N[C@@H](CCCNC(=N)N)C(=O)N[C@@H](CCCNC(=N)N)C(=O)N[C@@H](CCCNC(=N)N)C(=O)N[C@@H](CCCNC(=N)N)C(=O)N[C@@H](CCCNC(=N)N)C(=O)N[C@@H](CCCNC(=N)N)C(=O)N[C@@H](CCC(N)=O)C(=O)N[C@@H](CCCNC(=N)N)C(=O)N[C@@H](CCCNC(=N)N)C(=O)N[C@@H](CCCNC(=N)N)C(N)=O)NC(=O)[C@H](C)NC(=O)[C@H](Cc2ccc3ccccc3c2)NC(=O)[C@H](CCCNC(=N)N)NC(=O)[C@@H](Cc2ccc3ccccc3c2)NC(=O)[C@H](Cc2c[nH]cn2)NC(=O)[C@H](CCC(=O)O)NC1=O | – | – | – | – | – | 0.0291 µM | – | – | – | 0.0136 µM | 0.00365 µM | 0.0134 µM | – |
| CC(=O)N[C@H]1CSSC[C@@H](C(=O)N2CCC[C@H]2C(=O)N2CCC[C@H]2C(=O)N[C@@H](CCCCN)C(=O)N[C@@H](CC(=O)O)C(=O)NCCC(=O)N[C@@H](Cc2ccc(O)cc2)C(=O)NCC(=O)N[C@@H](CCCNC(=N)N)C(=O)N[C@@H](CCCNC(=N)N)C(=O)N[C@@H](CCCCN)C(=O)N[C@@H](CCCNC(=N)N)C(=O)N[C@@H](CCCNC(=N)N)C(=O)N[C@@H](CCC(N)=O)C(=O)N[C@@H](CCCNC(=N)N)C(=O)N[C@@H](CCCNC(=N)N)C(=O)N[C@@H](CCCNC(=N)N)C(N)=O)NC(=O)[C@H](C)NC(=O)[C@H](Cc2ccc3ccccc3c2)NC(=O)[C@H](CCCNC(=N)N)NC(=O)[C@@H](Cc2ccc3ccccc3c2)NC(=O)[C@H](Cc2c[nH]cn2)NC(=O)[C@H](CCC(=O)O)NC1=O | – | – | – | – | 0.46 µM | 0.0587 µM | – | – | 0.00112 µM | 0.0393 µM | – | 0.0103 µM | 0.0153 µM |
| CCCC[C@H](NC(C)=O)C(=O)N[C@H]1CSSC[C@@H](C(=O)NCCC(=O)N[C@@H](CCCNC(=N)N)C(=O)N[C@@H](CCCCN)C(=O)N[C@@H](CCCNC(=N)N)C(=O)N[C@@H](CCCNC(=N)N)C(=O)N[C@@H](CCCNC(=N)N)C(=O)N[C@@H](CCC(N)=O)C(=O)N[C@@H](CCCNC(=N)N)C(=O)N[C@@H](CCCNC(=N)N)C(=O)N[C@@H](CCCNC(=N)N)C(N)=O)NC(=O)[C@H](Cc2c[nH]c3ccccc23)NC(=O)[C@H](CCCNC(=N)N)NC(=O)[C@@H](Cc2ccccc2)NC(=O)[C@H](Cc2c[nH]cn2)NC(=O)[C@@H](C)NC1=O | – | – | – | 0.00161 µM | 0.199 µM | 0.00206 µM | 0.000468 µM | 0.000394 µM | 0.00122 µM | – | 0.000778 µM | – | 0.047 µM |
| CCCC[C@H](NC(C)=O)C(=O)N[C@H]1CSSC[C@@H](C(=O)NCCC(=O)N[C@@H](CCCNC(=N)N)C(=O)N[C@@H](CCCNC(=N)N)C(=O)N[C@@H](CCCCN)C(=O)N[C@@H](CCCNC(=N)N)C(=O)N[C@@H](CCCNC(=N)N)C(=O)N[C@@H](CCC(N)=O)C(=O)N[C@@H](CCCNC(=N)N)C(=O)N[C@@H](CCCNC(=N)N)C(=O)N[C@@H](CCCNC(=N)N)C(N)=O)NC(=O)[C@H](Cc2c[nH]c3ccccc23)NC(=O)[C@H](CCCNC(=N)N)NC(=O)[C@@H](Cc2ccccc2)NC(=O)[C@H](Cc2c[nH]cn2)NC(=O)[C@@H](C)NC1=O | – | – | – | 0.00139 µM | 0.165 µM | 0.00186 µM | 0.000484 µM | 0.000367 µM | 0.00123 µM | – | 0.000212 µM | – | 0.0585 µM |
| CC(=O)N[C@H]1CSSC[C@@H](C(=O)N2CCC[C@H]2C(=O)N2CCC[C@H]2C(=O)N[C@@H](CCCCN)C(=O)N[C@@H](CC(=O)O)C(=O)NCCC(=O)NCC(=O)N[C@@H](CCCNC(=N)N)C(=O)N[C@@H](CCCCN)C(=O)N[C@@H](CCCNC(=N)N)C(=O)N[C@@H](CCCNC(=N)N)C(=O)N[C@@H](CCCNC(=N)N)C(=O)N[C@@H](CCC(N)=O)C(=O)N[C@@H](CCCNC(=N)N)C(=O)N[C@@H](CCCNC(=N)N)C(=O)N[C@@H](CCCNC(=N)N)C(N)=O)NC(=O)[C@H](C)NC(=O)[C@H](Cc2ccc3ccccc3c2)NC(=O)[C@H](CCCNC(=N)N)NC(=O)[C@@H](Cc2ccc3ccccc3c2)NC(=O)[C@H](Cc2c[nH]cn2)NC(=O)[C@H](CCC(=O)O)NC1=O | – | – | – | – | 0.57 µM | 0.309 µM | – | – | – | 0.0228 µM | 0.00566 µM | 0.0171 µM | – |
| CC(=O)N[C@H]1CSSC[C@@H](C(=O)N2CCC[C@H]2C(=O)N2CCC[C@H]2C(=O)N[C@@H](CCCCN)C(=O)N[C@@H](CC(=O)O)C(N)=O)NC(=O)C(C)(C)NC(=O)[C@H](Cc2ccc3ccccc3c2)NC(=O)[C@H](CCCNC(=N)N)NC(=O)[C@@H](Cc2ccc3ccccc3c2)NC(=O)[C@H](Cc2c[nH]cn2)NC(=O)[C@H](CCC(=O)O)NC1=O [Ac-c(Cys-Glu-His-D-2-Nal-Arg-2-Nal-Aib-Cys)-Pro-Pro-Lys-Asp-NH2] (Ac-CEH[d2Nal]R[2Nal][Aib]CPPKD-NH2; disulfide 1-8) | – | – | – | – | 0.869 µM | 0.77 µM | 0.00587 µM | – | – | 0.221 µM | – | 0.00452 µM | – |
| CC(=O)N[C@H]1CSSC[C@@H](C(=O)N2CCC[C@H]2C(=O)N2CCC[C@H]2C(=O)N[C@@H](CCCCN)C(=O)N[C@@H](CC(=O)O)C(=O)NCCC(=O)N[C@@H](Cc2ccc(O)cc2)C(=O)NCC(=O)N[C@@H](CCCNC(=N)N)C(=O)N[C@@H](CCCCN)C(=O)N[C@@H](CCCNC(=N)N)C(=O)N[C@@H](CCCNC(=N)N)C(=O)N[C@@H](CCCNC(=N)N)C(=O)N[C@@H](CCC(N)=O)C(=O)N[C@@H](CCCNC(=N)N)C(=O)N[C@@H](CCCNC(=N)N)C(=O)N[C@@H](CCCNC(=N)N)C(N)=O)NC(=O)[C@H](C)NC(=O)[C@H](Cc2cccc3ccccc23)NC(=O)[C@H](CCCNC(=N)N)NC(=O)[C@@H](Cc2ccc3ccccc3c2)NC(=O)[C@H](Cc2c[nH]cn2)NC(=O)[C@H](CCC(=O)O)NC1=O | – | – | – | – | 0.261 µM | 0.102 µM | – | – | 0.00161 µM | 0.0263 µM | – | 0.0146 µM | – |
| CC(=O)N[C@H]1CSSC[C@@H](C(=O)N2CCC[C@H]2C(=O)N2CCC[C@H]2C(=O)N[C@@H](CCCNC(=N)N)C(=O)N[C@@H](CC(=O)O)C(=O)NCCC(=O)N[C@@H](CCCNC(=N)N)C(=O)N[C@@H](CCCNC(=N)N)C(=O)N[C@@H](CCCNC(=N)N)C(=O)N[C@@H](CCCNC(=N)N)C(=O)N[C@@H](CCCNC(=N)N)C(=O)N[C@@H](CCC(N)=O)C(=O)N[C@@H](CCCNC(=N)N)C(=O)N[C@@H](CCCNC(=N)N)C(=O)N[C@@H](CCCNC(=N)N)C(N)=O)NC(=O)[C@H](C)NC(=O)[C@H](Cc2cccc3ccccc23)NC(=O)[C@H](CCCNC(=N)N)NC(=O)[C@@H](Cc2ccc3ccccc3c2)NC(=O)[C@H](Cc2c[nH]cn2)NC(=O)[C@H](CCC(=O)O)NC1=O | – | – | – | – | 0.819 µM | 0.144 µM | 0.000293 µM | – | – | 0.116 µM | – | 0.00893 µM | – |
